Where two headings read alike, the source gives them in different places.
Columns and labels:
[1] = system: REDD1/RTP801 gene expression; test: REDD1/RTP801 gene expression in Hep3B cells (Affymetrix microarray); format: cell-based, human; details: 25 μM, vs DMSO control
Experimental: (§1) To identify compounds useful in the methods of the present invention, the following studies were performed. The effect of compounds of the present invention on expression of various genes associated with anti-tumor activity (e.g., genes having anti-proliferative activity, genes having pro-apoptotic activity, genes having anti-tumor activity, etc.). In these experiments, the effect of compounds on BNIP3, BNIP3L, NDRG1, CDKN1C, and REDD1/RTP801 gene expression in various types of cultured tumor cells line was examined, including Hep3B cells (human hepatocellular carcinoma), Kelly neuroblastoma cells, and MCF7 cells (human breast cancer)
(§2) The effects of various compounds of the present invention on the expression of genes associated with tumor growth and progression were examined in Hep3B cells as follows. Hep3B cells (ATCC) were cultured in DMEM containing 8% fetal bovine serum (FBS) and antibiotics. For each experiment, Hep3 cells were added to 6-well tissue culture dishes (approximately 500,000 cells per well). After 8 hours, the media was replaced with DMEM containing 0.5% FBS. Sixteen hours later, various compounds of the present invention were added to the cultured cells to a final concentration of 25 μM. The cells were then harvested and added to RNA extraction buffer (RNeasy, Qiagen). RNA was isolated from cell lysates using RNeasy Mini spin columns (Qiagen) according to the manufacturer's instructions. Changes in expression of various gene transcript levels associated with tumor growth and progression were determined by Affymetrix microarray. Labeled probes were prepared and hybridized to U133A Affyrnetrix microarrays.
(§3) Changes in gene expression levels in vitro following compound addition are presented as fold change relative to gene expression levels observed in control cells treated with DMSO only. Data represents the average of two independent studies.

[2] = system: BNIP3L gene expression; test: BNIP3L gene expression in Hep3B cells (Affymetrix microarray); format: cell-based, human; details: 25 μM, vs DMSO control
Experimental: as §1, §2, §3

[3] = system: NDRG1 gene expression; test: NDRG1 gene expression in Hep3B cells (Affymetrix microarray); format: cell-based, human; details: 25 μM, vs DMSO control
Experimental: as §1, §2, §3

[4] = system: BNIP3 gene expression; test: BNIP3 gene expression in Hep3B cells (Affymetrix microarray); format: cell-based, human; details: 25 μM, vs DMSO control
Experimental: as §1, §2, §3

[5] = system: BNIP3 gene expression; test: In vivo BNIP3 gene expression in Swiss Webster mice (quantitative PCR); details: Mus musculus, iv, 4 h, single 60 mg/kg i.v. dose, four hours after administration, normalized to 18S, read-out: fold change in BNIP3 mRNA level
Experimental: (§4) The effects of various compounds of the present invention on the expression of genes associated with tumor growth and progression (e.g., expression of genes associated with anti-proliferative effects) were examined in vivo as follows. In these studies, male Swiss Webster mice (25 g) were administered a single intravenous (i.v.) dose of various compounds (60 mg/kg) of the present invention via the tail vein. Four hours after administration of compound, the kidneys and liver were removed and preserved in RNAlater (Ambion). RNA isolation and cDNA synthesis was carried out as follows. Murine kidney tissue was added to TRIzol (Invitrogen) and homogenized using a 5-mm stainless steel bead for 4 minutes at 25 Hz in a Mixer Mill 300 (Qiagen). Homogenates were extracted with chloroform according to the manufacturer's instructions and aqueous supernatants were isolated. The aqueous supernatants were combined with equal volumes of 70% ethanol and then loaded onto RNeasy Mini spin columns (Qiagen). RNA was isolated according to the manufacturer's instructions.
(§5) Synthesis of cDNA from the isolated total RNA was carried out using Omniscript reverse transcriptase (Qiagen) and random primers according to the manufacturer's instructions. Measurement of gene expression levels in compound-treated animals and in vehicle-treated control animals was performed by quantitative PCR using TaqMan Universal PCR Master Mix (Applied Biosystems) and TaqMan Assay-on-Demand assays (Applied Biosystems) in a Prism 7000 system instrument (Applied Biosystems), according to manufacturer's instructions. The assays used were as follows: 18S ribosomal RNA, Hs99999901_s1; BNIP3, Mm00833810_g1; BNIP3L, Mm00786306_s1; NDRG1, Mm00440447_m1. Each PCR amplification reaction included a standard curve and a water blank. Data for gene expression levels for BNIP3, BNIP3L, and NDRG1 were normalized to that of 18S ribosomal RNA within each sample. Data is presented as fold change in specific mRNA levels relative to that of non-treated control animals.

[6] = system: BNIP3L gene expression; test: In vivo BNIP3L gene expression in Swiss Webster mice (quantitative PCR); details: Mus musculus, iv, 4 h, single 60 mg/kg i.v. dose, four hours after administration, normalized to 18S, read-out: fold change in BNIP3L mRNA level
Experimental: as §4, §5

[7] = system: CDKN1C gene expression; test: CDKN1C gene expression in MCF7 cells; format: cell-based; details: Homo sapiens; MCF7 cells; 20 μM; 20-24 hours; vs 0.5% DMSO control; read-out: fold-increase in CDKN1C mRNA expression
Experimental: as §1
(§6) The effects of various compounds of the present invention on the expression of genes associated with tumor growth and progression were examined in MCF7 breast cancer cells as follows. In some experiments, MCF7 (ATCC) cells were plated in 96-well tissue culture dishes (approximately 20,000 cells per well) and cultured in DMEM media supplemented with 10% serum. The following day, the cells were washed and the media was replaced with DMEM containing 0.5% FBS. Various compounds of the present invention were added to the cultured cells to a final concentration of 20 μM, and the cells cultured for an additional 20-24 hours. DMSO (0.5%) was added to control cell cultures. RNA was isolated as described above. Changes in gene expression levels are presented as fold change compared to that of control (0.5% DMSO-treated) cultures.

[8] = system: BNIP3 gene expression; test: BNIP3 gene expression in MCF7 cells; format: cell-based; details: Homo sapiens; MCF7 cells; 20 μM; 20-24 hours; vs 0.5% DMSO control; read-out: fold-increase in BNIP3 mRNA expression
Experimental: as §1, §6
In other experiments, MCF7 cells were plated in 96-well tissue culture dishes as described above. After 24 hours, the cells were washed and the media was replaced with DMEM containing 0.5% FBS. Various compounds of the present invention were added to the cultured cells to a final concentration of 20 μM. DMSO (0.5%) was added to control cell cultures. After 24 hours, changes in gene expression of BNIP3 and 18S RNA were determined directly using one-step quantitative multiplex RT-PCR reactions according to the manufacturer's instructions (QuantiTect Multiplex RT-PCR Kit, Qiagen, catalog no. 204643). Changes in gene expression levels are presented as fold change compared to that of control (0.5% DMSO-treated) cultures.

[9] = system: CDKN1C gene expression; test: CDKN1C gene expression in Kelly neuroblastoma cells; format: cell-based; details: Kelly cells; 20 μM; 20-24 hours; normalized to 18S RNA; vs DMSO control; read-out: fold-increase in CDKN1C mRNA expression
Experimental: as §1
(§7) The effects of various compounds of the present invention on the expression of genes associated with tumor growth and progression were examined in Kelly neuroblastoma cells as follows. Kelly neuroblastoma cells were grown in RPMI media. For each experiment, Kelly neuroblastoma cells were added to 96-well tissue culture plates (approximately 40,000 cells per well) such that the plated cells reached confluence the following day. On the following day, the cells were washed and the media replaced with RPMI containing 0.5% FBS. Various compounds of the present invention were added to the cultured cells to a final concentration of 20 μM, and the cells cultured for an additional 20-24 hours. DMSO (0.5%) was added to control cell cultures.
(§8) RNA was isolated from the Kelly neuroblastoma cells using a commercial kit and used for the preparation of cDNA. BNIP3, CDKN1C, and 18S RNA levels were measured using commercial kits (18S, Applied Biosystems cat#4319413E); BNIP3, Applied Biosystems cat#HS00969293 MH). RNA levels for BNIP3 and CDKN1C were normalized to that of 18S RNA and is presented as fold-change compared to that observed in DMSO control cultures. Kelly cell NDRG1 and BNIP3L mRNA levels were measured by Affymetrix microarray in a separate study. Cells were harvested after 6 hours incubation with 20 μM test compound or DMSO (0.5%) as control. RNA was isolated and labeled probes were prepared and hybridized to U133 Plus 2.0 Affymetrix microarrays. Changes in gene expression levels are presented as fold change compared to that of control (0.5% DMSO-treated) cultures.

[10] = system: BNIP3 gene expression; test: BNIP3 gene expression in Kelly neuroblastoma cells; format: cell-based; details: Kelly cells; 20 μM; 20-24 hours; normalized to 18S RNA; vs DMSO control; read-out: fold-increase in BNIP3 mRNA expression
Experimental: as §1, §7, §8

[11] = system: NDRG1 gene expression; test: In vivo NDRG1 gene expression in Swiss Webster mice (quantitative PCR); details: Mus musculus, iv, 4 h; kidney; single 60 mg/kg i.v. dose; four hours after administration; normalized to 18S; read-out: fold change in NDRG1 mRNA level
Experimental: as §4, §5

O=C(O)c1c[nH]c2c(ccc3cccnc32)c1=O [Compound F, 4-Oxo-1,4-dihydro-[1,10]phenanthroline-3-carboxylic acid]
fold-increase in REDD1/RTP801 mRNA expression [1]: 6.3 fold
fold-increase in BNIP3L mRNA expression [2]: 3.2 fold
fold-increase in NDRG1 mRNA expression [3]: 5.4 fold
fold-increase in BNIP3 mRNA expression [4]: 3.5 fold
fold induction at 60 mg/kg ([5]; liver): 1.1
fold induction at 60 mg/kg ([6]; liver): 1.3

COc1ccc(CCN(CCC(=O)NO)S(=O)(=O)c2ccc(NC(=O)N(Cc3ccccc3)Cc3ccccc3)cc2)cc1 [Compound G, 3-{[4-(3,3-Dibenzyl-ureido)-benzenesulfonyl]-[2-(4-methoxy-phenyl)-ethyl]-amino}-N-hydroxy-propionamide]
fold-increase in REDD1/RTP801 mRNA expression [1]: 14.1 fold
fold-increase in BNIP3L mRNA expression [2]: 4.3 fold
fold-increase in NDRG1 mRNA expression [3]: 6.8 fold
fold-increase in BNIP3 mRNA expression [4]: 4.2 fold

O=C(O)CNC(=O)c1nc2cc(Cl)ccc2cc1O [Compound H, [(7-Chloro-3-hydroxy-quinoline-2-carbonyl)-amino]-acetic acid]
fold-increase in REDD1/RTP801 mRNA expression [1]: 2.4 fold
fold-increase in BNIP3L mRNA expression [2]: 1.5 fold
fold induction at 20 µM [7]: 0.7
fold-increase in NDRG1 mRNA expression [3]: 2.4 fold
fold-increase in BNIP3 mRNA expression [4]: 2.0 fold
fold induction at 20 µM [8]: 3.2
fold induction at 20 µM [9]: 11.6
fold induction at 20 µM [10]: 5.9

COc1ccc2c(O)c(C(=O)NCC(=O)O)nc(Cl)c2c1 [Compound I, [(1-Chloro-4-hydroxy-7-methoxy-isoquinoline-3-carbonyl)-amino]-acetic acid]
fold-increase in REDD1/RTP801 mRNA expression [1]: 3.8 fold
fold-increase in BNIP3L mRNA expression [2]: 1.7 fold
fold-increase in NDRG1 mRNA expression [3]: 3.3 fold
fold-increase in BNIP3 mRNA expression [4]: 2.1 fold

O=C(O)CNC(=O)c1ncc2cc(Cl)c(Cl)cc2c1O [Compound J, [(6,7-Dichloro-4-hydroxy-isoquinoline-3-carbonyl)-amino]-acetic acid]
fold induction at 60 mg/kg [11]: 1.7
fold induction at 20 µM [7]: 0.8
fold induction at 20 µM [8]: 3.3
fold induction at 20 µM [9]: 6.9
fold induction at 60 mg/kg ([5]; kidney): 2
fold induction at 20 µM [10]: 8.9
fold induction at 60 mg/kg ([6]; kidney): 1.3

O=C(O)CNC(=O)c1ncc2cc(Oc3ccccc3)ccc2c1O [Compound K, [(4-Hydroxy-7-phenoxy-isoquinoline-3-carbonyl)-amino]-acetic acid]
fold-increase in REDD1/RTP801 mRNA expression [1]: 4.8 fold
fold-increase in BNIP3L mRNA expression [2]: 2.2 fold
fold-increase in NDRG1 mRNA expression [3]: 3.3 fold
fold-increase in BNIP3 mRNA expression [4]: 3.0 fold
fold induction at 20 µM [8]: 7.7

C[C@H](NC(=O)c1ncc2cc(Sc3ccccc3)ccc2c1O)C(=O)O [Compound L, (S)-2-[(4-Hydroxy-7-phenylsulfanyl-isoquinoline-3-carbonyl)-amino]-propionic acid]
fold induction at 60 mg/kg [11]: 1
fold induction at 20 µM [7]: 0.2
fold induction at 20 µM [8]: 4.8
fold induction at 20 µM [9]: 120
fold induction at 60 mg/kg ([5]; kidney): 2.8
fold induction at 20 µM [10]: 32.8
fold induction at 60 mg/kg ([6]; kidney): 3.4

O=C(O)CNC(=O)c1nc(Oc2ccccc2)c2cc(Oc3ccccc3)ccc2c1O [Compound M, [(4-Hydroxy-1,7-diphenoxy-isoquinoline-3-carbonyl)-amino]-acetic acid]
fold induction at 20 µM [7]: 2.1
fold induction at 20 µM [8]: 0.4
fold induction at 20 µM [9]: 3.4
fold induction at 20 µM [10]: 27.6

O=C(O)CNC(=O)c1ncc2cc(Sc3ccccc3)ccc2c1O [Compound N, [(4-hydroxy-7-phenylsulfanyl-isoquinoline-3-carbonyl)-amino]-acetic acid]
fold induction at 60 mg/kg [11]: 1.2
fold-increase in REDD1/RTP801 mRNA expression [1]: 5.7 fold
fold-increase in BNIP3L mRNA expression [2]: 2.8 fold
fold induction at 20 µM [7]: 0.4
fold-increase in NDRG1 mRNA expression [3]: 3.7 fold
fold-increase in BNIP3 mRNA expression [4]: 3.6 fold
fold induction at 20 µM [8]: 4.9
fold induction at 20 µM [9]: 183
fold induction at 60 mg/kg ([5]; kidney): 3.1
fold induction at 20 µM [10]: 27.1
fold induction at 60 mg/kg ([6]; kidney): 3.4
